The results in this text go back to PubChem BioAssay AID1996.

≈ marks a conversion by molar mass, not a printed value. A value given as a limit tells only on which side of the number the result lay.

For this data set the following is noted: buffer; pH 7.4; 200.0 µM.
For the compound `C=CCNC(=O)/C(C#N)=C/c1ccc2c(c1)OCCO2`, the kinetic solubility (as a rule, solubility judged after dilution from a stock solution rather than from solid) was determined as 7 µg/mL (≈ 25.9 µM).
Take `CCC(C)[C@H](NC(=O)NCc1ccco1)C(=O)OC` (stereo partly specified): the solubility (kinetic) is more than 40.2 µg/mL.
Take `COc1ccc(C(=O)CN2C(=O)COc3ccccc32)cc1`: the solubility (kinetic) turned out to be 43.1 µg/mL (≈ 145 µM).
As for `O=C(CNC(=O)Cc1cccc2ccccc12)NCc1ccccc1F`, the figure is 36.5 µg/mL (≈ 104 µM); as for `Cc1cc(C)c2cc(C(=O)Nc3ccccc3)[nH]c2c1`, 1.2 µg/mL (≈ 4.54 µM).
On to `N#Cc1ccccc1NC(=O)COC(=O)CCc1ccccc1`, for which the kinetic solubility was more than 46.3 µg/mL.
Compound `COc1ccc(C(C)NC(=O)C2CCCC2)cc1OC` (stereo unspecified) registered a solubility (kinetic) of more than 41.6 µg/mL.
`CCOc1ccc(N2CC(C(=O)NCc3ccco3)CC2=O)cc1` (stereo unspecified) gave a solubility (kinetic) of more than 49.3 µg/mL.
For the compound `COc1ccc(CNc2ccc3c(c2)nc(C)n3C)cc1OC`, the kinetic solubility came to 37.2 µg/mL (≈ 119 µM).
Consider `CC(CCc1ccccc1)NC(=O)CC(C)c1ccccc1` (stereo unspecified), for which the solubility (kinetic) is 43.4 µg/mL (≈ 147 µM).
For `CCCCOc1ccc(C(=O)Oc2cccnc2)cc1`, the kinetic solubility was 1.5 µg/mL (≈ 5.53 µM).
In the case of `CCOC(=O)c1cnc2ccc(C)cc2c1N(C)Cc1ccccc1` it was 3.8 µg/mL (≈ 11.4 µM); in that of `O=C(O)CSCC(=O)NCc1c(Cl)cccc1Oc1ccccc1`, 52 µg/mL (≈ 142 µM).
In the case of `CC(=O)N1CCN(C(=O)c2cc3c(s2)CCCC3)CC1` it was more than 43.9 µg/mL; in that of `CC(C)c1cccc(C(C)C)c1OC(=O)NC(=O)c1c(F)cccc1F`, 17.4 µg/mL (≈ 48.1 µM).
Consider `O=C1CCc2cc(S(=O)(=O)Nc3ccccc3Cl)ccc2N1`, for which the solubility (kinetic) is more than 50.5 µg/mL.
In turn, `CCc1nc2c(c(=O)[nH]1)C(CC)(CC)Cc1ccccc1-2` gave a solubility (kinetic) of 0.7 µg/mL (≈ 2.48 µM).
As for `COC(=O)c1cc(C(C)=O)c(C)[nH]c1=O`, the figure is more than 31.4 µg/mL.
In the case of `COC(=O)/C=C/COc1ccccc1[N+](=O)[O-]` it was 17.9 µg/mL (≈ 75.5 µM).
In the case of `Cc1cc(Br)c2c(c1)C1(OCCO1)C(=O)N2` it was more than 42.6 µg/mL; in that of `O=C1CN(C(=O)c2ccc(F)cc2)c2ccccc2N1`, more than 40.5 µg/mL.
The compound `CC(C)n1c(SCC(=O)NC2CC2)nnc1-c1ccco1` displayed a solubility (kinetic) of more than 46 µg/mL.
As for `CC(NS(=O)(=O)c1ccccc1)C(=O)NC1CCCC1` (stereo unspecified), the solubility (kinetic) is more than 44.5 µg/mL.
In the case of `N#CC1(NC(=O)CSc2nc3ccccc3s2)CCCCC1` it was 46.4 µg/mL (≈ 140 µM).
With `O=C(O)c1ccc(Cn2cc(/C=C\[N+](=O)[O-])c3ccccc32)o1`, the kinetic solubility is more than 46.8 µg/mL.
As for `CN(C)S(=O)(=O)c1cccc(C(=O)NC2CCSc3ccccc32)c1` (stereo unspecified), the figure is 4.8 µg/mL (≈ 12.7 µM); as for `O=C(NC(=S)Nc1ccccc1C(=O)O)c1cncc(Br)c1`, more than 57 µg/mL; as for `Cn1c(N)c(C(=O)Nc2ccc(-c3ccccc3)cc2)sc1=S`, 0.6 µg/mL (≈ 1.76 µM).
In turn, `COCCCNC(=S)Nc1ccccc1[N+](=O)[O-]` returned a kinetic solubility of more than 40.4 µg/mL.
Take `C=CCn1c(O)c(C(CC)=Nc2ccc3c(c2)CCC3)c(=O)[nH]c1=O`: the kinetic solubility was determined as 1.4 µg/mL (≈ 4.12 µM).
`Cc1cc(C(=O)CCC(=O)NCC(=O)Nc2c(C)cccc2C)c(C)s1` yielded a solubility (kinetic) of more than 55.9 µg/mL.
`COc1ccc(OCCn2ccnc2)cc1` showed a solubility (kinetic) of 26.4 µg/mL (≈ 121 µM).
In the case of `O=C(O)CNC(=O)C12CC3CC(CC(Cl)(C3)C1)C2` it was more than 40.8 µg/mL; in that of `COc1ccccc1OC(C)C(=O)Nc1ccc2c(c1)OCCO2` (stereo unspecified), more than 49.4 µg/mL; in that of `COc1ccccc1NC(=O)C(C)N(C)CC(=O)Nc1cccc2ccccc12.Cl` (stereo unspecified), more than 64.2 µg/mL.
As for `CC1(C)CC(=O)C2=C(C1)NC(=O)NC2c1ccccc1Cl` (stereo unspecified), the solubility (kinetic) is 45.6 µg/mL (≈ 150 µM).
In turn, `COc1ccc(Nc2ncc(F)c(N3CCOCC3)n2)cc1` had a solubility (kinetic) of 3.8 µg/mL (≈ 12.5 µM).
The compound `CN(CC(=O)Nc1ccc(F)cc1[N+](=O)[O-])Cc1ccccc1` showed a kinetic solubility of 1 µg/mL (≈ 3.15 µM).
In turn, `O=C(OCc1ccc(Cl)c(Cl)c1)c1ccc[nH]1` displayed a kinetic solubility of 1.9 µg/mL (≈ 7.03 µM).
`O=C(NCc1ccccc1)c1ccc(Cl)cc1` returned a kinetic solubility of 3.8 µg/mL (≈ 15.5 µM).
Take `c1cnc(-c2noc(CN3CCN(C4CCCC4)CC3)n2)cn1`: the kinetic solubility was more than 47.2 µg/mL.
